Assay results: PMC7875557, “Development and optimization of sitagliptin and dapagliflozin loaded oral self-nanoemulsifying formulation against type 2 diabetes mellitus” (Drug Delivery, 2020)
Blank lines part the entries; values can stand above or below the compound they belong to.

Legend:
[1] = DPPH free radical scavenging assay
Description: For antioxidant activity, DPPH (2, 2-diphenyl-1-picrylhydrazyl) free radical scavenging assay was employed. This method was carried out as previously described by Brand-Williams et al. ([1995]). The method quantifies free radical scavenging capacity of the investigated samples. DPPH is a molecule that contains a stable free radical. In the presence of an antioxidant which is able to donate an electron to DPPH, the change in the absorbance at 517 nm is followed spectrophotometrically (UV mini-1240, Shimadzu, Japan). Various concentrations of […] (10, 50, 100, 500, and 1000 μg/mL) were used. The assay mixture was made up of a total volume of 1 mL, containing 500 μL of the sample, 125 μL of the prepared DPPH, and 375 μL of methanol. As positive control, ascorbic acid was used. The samples were incubated for 30 min at 25 °C, after which the decrease in absorbance was measured at λ = 517 nm. Radical scavenging activity of the samples were calculated using the following equation below: (1) % radical scavenging activity=(Abs control − Abs sample/Abs control) ×100

[2] = In vivo oral bioavailability / pharmacokinetic study; settings: male, Wister, rat, plasma, 6 mg/kg; rats, after oral administration; read-out: Time to peak plasma levels
Description: Male rats (Wister, 200–220 g) were obtained from Laboratory Animal Center of pharmacy college, KSU. The rats were randomly allocated into two groups, each group consisted of six rats: the representative SNEDDS [F1, BSO/CMCM/CrEL (15/35/50%w/w)] (group A) and marketed drug (group B). The animals were fasted for 12 h prior to the oral administration of SNEDDS of DN (6 mg/kg rat). The experimental procedures were carried out in accordance with the principles of National Institute of Health Guide for the Care and Use of Laboratory Animals (NIH Publications No. 80–23; 1996) as well as the animal facilities guidelines from the Ethical committee of Experimental Animal Care Center, College of Pharmacy, King Saud University (Clearance No. KSU-SE—19-105; 20th November 2019). […]
In vivo animal studies were performed using only DN in the dose and SN was not included due to the different pharmacokinetic features of the SN and DN. […] The concentration of DN in plasma was determined by UHPLC as follow: A 775 μL of methanol was added to 225 μL aliquot of plasma. […] The nonlinear pharmacokinetic parameters such as Cmax, Tmax, and AUC(0–∞) were determined.
The pharmacokinetic assessment was done after oral administration on the basis of DN concentrations in the plasma samples of the rat. […] This was vortexed and transferred to an auto sampler vial to be analyzed in the UHPLC system. […]

Diabetic mice (STZ) = test: Anti-diabetic study in streptozotocin-induced diabetic mice; type: in vivo, Swiss albino mice; settings: DN 6 mg/kg, SN 10 mg/kg; for Glucose level 0 h: STZ (60 mg/kg) diabetic mice, before dose; for Glucose level 0 h / Glucose level 2 h: Mean ± SEM, n = 3; for Glucose level decrease / Glucose level 2 h / % Inhibition of glucose level: STZ diabetic mice; for Glucose level decrease: 0 h to 2 h; for Glucose level 2 h / % Inhibition of glucose level: 2 h after dose
Description: Male Swiss albino mice (20–25 g) roughly of same age group were procured from the Experimental Animal Care Center, College of Pharmacy, King Saud University, with the approval Clearance No. KSU-SE—19-105 (20th November 2019) by the Ethical committee. The animals used in this study were kept at 22 °C temperature by maintaining 55% humidity and light/dark (12/12 h) conditions. They were provided free access to Purina chow and drinking water ad libitum. The […] were initially acclimatized for seven days prior to being used for the anti-diabetic studies.
Diabetes was induced overnight in fasted mice by single intraperitoneal (IP) injection of 60 mg/kg of streptozotocin (STZ) that was freshly dissolved in 0.1 M cold citrate buffer at pH 4.5. After 72 h of STZ administration, blood was collected from the animals and plasma glucose levels were examined. Animals that were confirmed diabetic by the elevated plasma glucose levels (>200 mg/dl) were used for the experiment. The animals were then randomly assigned into seven groups of three animals and received the following treatments: Group I: Normal control mice treated with Normal saline; Group II: Diabetic control mice treated with Normal saline; Group III: Diabetic mice treated with thymoquinone 5 mg/kg (IP); Group IV: Diabetic mice treated with DN 6 mg/kg (IP); Group V: Diabetic mice treated with SN 10 mg/kg (IP); Group VI: Diabetic mice treated with DN 6 mg/kg (IP) and SN 10 mg/kg (IP); Group VII: Diabetic mice treated with marketed product Dapazin® 6 mg/kg (IP).

SGLT2 = settings: ref Santos et al., 2017, Wilding et al.; cited from earlier work
[3] = Equilibrium solubility (shake flask); type: physicochemical; settings: for Solubility in Water (100%): 100% water
Description: […] The samples were prepared by adding an excess amount of SN and DN to the formulations, which was then thoroughly agitated with a vortex mixer to ensure adequate mixing. Three replicates were taken for each formulation. The samples for the solubility experiments were analyzed using in-house developed UHPLC method by dissolving each of the formulations with an appropriate solvent.

[4] = β-carotene–linoleic acid (bleaching) assay; settings: 1000 µg
Description: The antioxidant activity of the samples were evaluated using the β-carotene bleaching method described by Velioglu et al. ([1998]) with modifications. One milliliter (1 mL) of a 0.2 mg/mL solution of β -carotene in chloroform was added to flasks containing 0.2 mL of Tween 20 and 0.02 mL of linoleic acid. The chloroform was removed in a rotary evaporator at 40 °C. The resulting mixture was then diluted with 100 mL of distilled water and mixed for approximately 2 min to form an emulsion. Similarly, another mixture was prepared without β-carotene to use as a blank. A control containing 0.2 mL of 80% (v/v) methanol was also used instead of sample. Aliquot of the emulsion (5 mL) was added to 0.2 mL of the sample at 1 mg/mL. As a standard, Rutin (1 mg/mL) was used. The tubes were incubated in a water bath at 40 °C for 2 h. Absorbance was measured at 470 nm at 15 min intervals, using a UV–visible spectrophotometer (UV mini-1240, Shimadzu, Japan) and the antioxidant activity was calculated from the equation below: (2) % of antioxidant activity= (Abs0 − Abst)/(Abs0° − Abst°) ×100 where, Abs0 and Abs0° represented the absorbance values measured at zero time of incubation for sample extract and control, respectively. Abst and Abst° are the absorbance values at t = 120 min for samples and control, respectively.

SMILES: O=C1O[C@H]([C@@H](O)CO)C(O)=C1O [Ascorbic acid]
Radical scavenging activity ([1]; 10 µg): 33.7 ± 3.5%
Radical scavenging activity ([1]; 50 µg): 74.1 ± 1.3%
Radical scavenging activity ([1]; 100 µg): 85.6 ± 3.2%
Radical scavenging activity ([1]; 500 µg): 88.7 ± 2.7%
Radical scavenging activity ([1]; 1000 µg): 91.7 ± 3.4%

Tmax [2]: ≤ 4 h
Solubility in Water (100%) [3]: 1.48 ± 0.14 mg/g
SMILES: CCOc1ccc(Cc2cc([C@@H]3O[C@H](CO)[C@@H](O)[C@H](O)[C@H]3O)ccc2Cl)cc1 [Dapagliflozin, dapagliflozin]
Glucose level 0 h (Diabetic mice (STZ)): 362.00 ± 4.93 mg/dL
Glucose level decrease (Diabetic mice (STZ)): 143 mg/dL
Glucose level 2 h (Diabetic mice (STZ)): 219.00 ± 7.57 mg/dL
% Inhibition of glucose level (Diabetic mice (STZ); listed as DN): 39.50%
% Inhibition of glucose level (Diabetic mice (STZ); listed as DN (pure)): 39.50↓ %
Selectivity for SGLT2 over SGLT1 (SGLT2): 1200 fold

SMILES: C[C@@H]1O[C@@H](OC[C@H]2O[C@@H](Oc3c(-c4ccc(O)c(O)c4)oc4cc(O)cc(O)c4c3=O)[C@H](O)[C@@H](O)[C@@H]2O)[C@H](O)[C@H](O)[C@H]1O [Rutin]
Total antioxidant activity [4]: 93.1 ± 1.2%

Solubility in Water (100%) [3]: 3.62 ± 0.11 mg/g
Loading of SN in the anhydrous SNEDDS relative to aqueous solubility ([3]; from equilibrium solubility of diluted formulations): > 400%
SMILES: N[C@@H](CC(=O)N1CCn2c(nnc2C(F)(F)F)C1)Cc1cc(F)c(F)cc1F [Sitagliptin, sitagliptin]
Glucose level 0 h (Diabetic mice (STZ)): 381.33 ± 11.25 mg/dL
Glucose level decrease (Diabetic mice (STZ)): 208 mg/dL
Glucose level 2 h (Diabetic mice (STZ)): 173.33 ± 7.53 mg/dL
% Inhibition of glucose level (Diabetic mice (STZ); listed as SN): 54.54%
% Inhibition of glucose level (Diabetic mice (STZ); listed as SN (Pure)): 54.54↓ %
